This note sets out measurements from ChEMBL document CHEMBL1135832, “Syntheses, calcium channel agonist-antagonist modulation activities, nitric oxide release, and voltage-clamp studies of 2-nitrooxyethyl 1,4-dihydro- 2,6-dimethyl-3-nitro-4-(2-trifluoromethylphenyl)pyridine-5-carboxylate enantiomers” (J Med Chem, 2002).

Structures are written as SMILES.

The term IC50 denotes the concentration at which inhibition is half-maximal.

What all share (type): functional
The species entered for experiment [1] is Cavia porcellus. The experiment is described as follows: In vitro NO ([…]) release by nitrite quanititation using Griess reaction. For orientation: Nitrite, measured by Griess reagent, commonly stands in for NO production.
For experiment [2], the species on record is Cavia porcellus. The experiment in a line: In vitro calcium channel modulating activity in guinea pig left atrium (GPLA). The following applies: Cardiac atrium.
The species entered for experiment [3] is Cavia porcellus. The experiment in a line: In vitro NO ([…]) release by nitrite quanititation using Griess reaction without N-acetyl-cysteamine.
The species named for experiment [4] is Cavia porcellus. The experiment is described as follows: In vitro NO ([…]) release by nitrite quanititation using Griess reaction in presence of N-acetyl-cysteamine.

For `CC1=NC(C)=C([N+](=O)[O-])[C@@H](c2ccccc2C(F)(F)F)/C1=C(\O)OCCO[N+](=O)[O-]`, the “% of NO release” value in the experiment listed under Cavia porcellus [1] worked out at 1.09. For `CC1=NC(C)=C([N+](=O)[O-])[C@H](c2ccccc2C(F)(F)F)/C1=C(\O)OCCO[N+](=O)[O-]`, in the experiment filed under Cavia porcellus [1], the “% of NO release” value stood at 2.7. Also, the IC50 in the experiment listed under Cavia porcellus [2] came to 16 µM. As for `O=[N+]([O-])OCC(CO[N+](=O)[O-])O[N+](=O)[O-]` [NITROGLYCERIN], the “% of NO release” value in the experiment filed under Cavia porcellus [3] is given as 0.18; in the experiment listed under Cavia porcellus [4], 5.3.
